Data on 24 molecules can be found in patent US7790896B2, “RNA-selective probes for live cell imaging of nuclear structure and function” (New York University, priority 2006, dated 2010).

This data set in a line: Fluorescence spectrum in TE buffer of dyes selected from live cell imaging. It counts as physicochemical. The settings on record: dye 10 μM in TE buffer. The protocol:
The fluorescence spectra data in the primary screening and selected dyes titration assay study was obtained by Gemini XS plate reader. RNA solution was prepared right before the assay experiments to avoid possible degradation and contamination. In the primary screening, 1 mg/mL RNA (type VI from torula yeast) buffer solution was used. Point scans were carried out first using five Ex/Em point sets ([…], 400/500, 450/550, 500/600, 550/650 nm). Spectra scans were then carried out for the selected dyes. Excitation wavelengths were set at 350 nm, 400 nm, 450 nm, 500 nm, and 550 nm and the emission wavelengths were scanned. RNA (16S- and 23S-ribosomal from E. coli) and DNA (salmon testes) titration experiments and quantum yield/extinction coefficient determination for the three best dyes were carried out by the plate reader as well. Excitation λmax obtained from F-2500 Hitachi Fluorophotometer was used. Absorbance wavelength was determined by SpectraMax Plus^384 absorbance plate reader. […] was chosen as standard and 480 nm was used as excitation wavelength in the scanning for quantum yield determination.
The molecule `COc1ccc2c(ccc(C=Cc3ccc(-c4cccs4)s3)[n+]2C)c1` [Dye F119] had an SPECTRUM EM of 610 nm and an SPECTRUM EX of 500 nm.

For `COc1ccc2c(ccc(/C=C/c3cc4c5c(c3O)CCCN5CCC4)[n+]2C)c1` [Dye F115], the SPECTRUM EM is 650 nm and the SPECTRUM EX was determined as 500 nm.

With `COc1ccc(Oc2cccc(/C=C/c3ccc4ccccc4[n+]3C)c2)cc1` [Dye E83], the SPECTRUM EM turned out to be 450 nm and the SPECTRUM EX was found to be 350 nm.

Molecule `COc1ccc2c(ccc(/C=C/c3cc(I)ccc3O)[n+]2C)c1` [Dye F120] showed an SPECTRUM EM of 550 nm and an SPECTRUM EX of 450 nm.

`COc1ccc2c(ccc(C=Cc3ccc(C)c4ccccc34)[n+]2C)c1` [Dye F141] registered an SPECTRUM EM of 560 nm and an SPECTRUM EX of 450 nm.

With `CCOc1cccc(C=Cc2ccc3cc(OC)ccc3[n+]2C)c1O` [Dye F104], the SPECTRUM EM is 460 nm and the SPECTRUM EX was found to be 350 nm.

The molecule `COc1ccc2c(ccc(/C=C/c3ccc(Br)s3)[n+]2C)c1` [Dye F77] came in with an SPECTRUM EM of 440 nm and an SPECTRUM EX of 350 nm.

On to `COc1ccc2c(ccc(C=Cc3c(C)ccc4ccccc34)[n+]2C)c1` [Dye F143], for which the SPECTRUM EM came to 550 nm and the SPECTRUM EX worked out at 450 nm.

For the molecule `COc1ccc2c(ccc(/C=C/c3cccc(OC)c3OC(C)=O)[n+]2C)c1` [Dye F153], the SPECTRUM EM came out at 470 nm and the SPECTRUM EX came out at 350 nm.

`COc1ccc2c(ccc(/C=C/c3c(C)cc(C)cc3C)[n+]2C)c1` [Dye F85] registered an SPECTRUM EM of 470 nm and an SPECTRUM EX of 400 nm.

For the molecule `COc1ccc2c(ccc(C=Cc3ccc4c5c(cccc35)CC4)[n+]2C)c1` [Dye F118], the SPECTRUM EM worked out at 590 nm and the SPECTRUM EX came out at 450 nm.

Molecule `Cc1ccc2ccccc2c1/C=C/c1cc[n+](C)c2ccccc12` [Dye D143] came in with an SPECTRUM EM of 530 nm and an SPECTRUM EX of 400 nm.

The molecule `COc1ccc2c(ccc(C=Cc3ccccc3Br)[n+]2C)c1` [Dye F47] yielded an SPECTRUM EM of 470 nm and an SPECTRUM EX of 350 nm.

Consider `COc1ccc(-c2ccc(/C=C/c3cccc[n+]3C)o2)cc1Cl` [Dye B139], for which the SPECTRUM EM was 570 nm and the SPECTRUM EX is 450 nm.

Take `COc1ccc2c(ccc(C=Cc3ccc4c(c3)OCO4)[n+]2C)c1` [Dye F43]: the SPECTRUM EM stood at 560 nm and the SPECTRUM EX came out at 450 nm.

The molecule `C[n+]1c(/C=C/c2ccc(Br)s2)ccc2ccccc21` [Dye E77] displayed an SPECTRUM EM of 470 nm and an SPECTRUM EX of 350 nm.

`COc1ccc2c(ccc(/C=C/c3cc(Br)ccc3OC)[n+]2C)c1` [Dye F137] came in with an SPECTRUM EM of 540 nm and an SPECTRUM EX of 400 nm.

In turn, `COc1ccc(Oc2cccc(C=Cc3ccc4cc(OC)ccc4[n+]3C)c2)cc1` [Dye F83] returned an SPECTRUM EM of 460 nm and an SPECTRUM EX of 350 nm.

Molecule `COc1ccc(/C=C/c2ccc3ccccc3[n+]2C)cc1` [Dye E63] had an SPECTRUM EM of 480 nm and an SPECTRUM EX of 400 nm.

As to `COc1ccc2c(ccc(/C=C/c3ccccc3OCC(=O)O)[n+]2C)c1` [Dye F116], the SPECTRUM EM was found to be 520 nm and the SPECTRUM EX stood at 400 nm.

Take `COc1ccc2c(ccc(/C=C/c3ccoc3)[n+]2C)c1` [Dye F48]: the SPECTRUM EM stood at 480 nm and the SPECTRUM EX amounted to 400 nm.

Turning to `COc1ccc2c(ccc(/C=C/c3cccc(Br)n3)[n+]2C)c1` [Dye F128], the SPECTRUM EM stood at 510 nm and the SPECTRUM EX stood at 400 nm.

Regarding `CCCCCC(/C=C/c1ccc2cc(OC)ccc2[n+]1C)=C\c1ccccc1` [Dye F101], the SPECTRUM EM came to 470 nm and the SPECTRUM EX is 350 nm.

On to `C[n+]1c(/C=C/c2ccc(-c3cccs3)s2)ccc2ccccc21` [Dye E119], for which the SPECTRUM EM amounted to 600 nm and the SPECTRUM EX was 450 nm.
